Data published in the supplement of paper PMC10307832.

Assays:
Assay in all cases: relative viability (nuclei count vs DMSO), 5 days (fraction); higher = more cells survive
17-AAG + Navitoclax = compound: C=CCNC1=C2C[C@@H](C)C[C@H](OC)[C@H](O)[C@@H](C)/C=C(\C)[C@H](OC(N)=O)[C@@H](OC)/C=C\C=C(/C)C(=O)NC(=CC1=O)C2=O [17-AAG] + CC1(C)CCC(c2ccc(Cl)cc2)=C(CN2CCN(c3ccc(C(=O)NS(=O)(=O)c4ccc(N[C@H](CCN5CCOCC5)CSc5ccccc5)c(S(=O)(=O)C(F)(F)F)c4)cc3)CC2)C1 [Navitoclax] (partner 0.5 µM)
How it was run: (§1)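 Lung cancer cell lines in 1536-well plates got either a single drug or a fixed anchor-drug dose together with five library-drug doses (not always all listed) in √10 steps, by pin tool, on the day after seeding. Nuclei were counted after 5 days, and relative viability is the treated-to-vehicle ratio of nuclei counts. Values are medians of duplicate plates.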

17-AAG + Linsitinib = compound: C=CCNC1=C2C[C@@H](C)C[C@H](OC)[C@H](O)[C@@H](C)/C=C(\C)[C@H](OC(N)=O)[C@@H](OC)/C=C\C=C(/C)C(=O)NC(=CC1=O)C2=O [17-AAG] + C[C@]1(O)C[C@@H](c2nc(-c3ccc4ccc(-c5ccccc5)nc4c3)c3c(N)nccn32)C1 [Linsitinib] (partner 1 µM)
How it was run: as §1

17-AAG + Luminespib = compound: C=CCNC1=C2C[C@@H](C)C[C@H](OC)[C@H](O)[C@@H](C)/C=C(\C)[C@H](OC(N)=O)[C@@H](OC)/C=C\C=C(/C)C(=O)NC(=CC1=O)C2=O [17-AAG] + CCNC(=O)c1noc(-c2cc(C(C)C)c(O)cc2O)c1-c1ccc(CN2CCOCC2)cc1 [Luminespib] (partner 0.01 µM)
How it was run: as §1

17-AAG + Foretinib = compound: C=CCNC1=C2C[C@@H](C)C[C@H](OC)[C@H](O)[C@@H](C)/C=C(\C)[C@H](OC(N)=O)[C@@H](OC)/C=C\C=C(/C)C(=O)NC(=CC1=O)C2=O [17-AAG] + COc1cc2c(Oc3ccc(NC(=O)C4(C(=O)Nc5ccc(F)cc5)CC4)cc3F)ccnc2cc1OCCCN1CCOCC1 [Foretinib] (partner 0.25 µM)
How it was run: as §1

Cell Line | relative viability (17-AAG + Navitoclax; first compound 0.00128 µM) | relative viability (17-AAG + Navitoclax; first compound 0.004048 µM) | relative viability (17-AAG + Navitoclax; first compound 0.0128 µM) | relative viability (17-AAG + Navitoclax; first compound 0.04048 µM) | relative viability (17-AAG + Navitoclax; first compound 0.128 µM) | relative viability (17-AAG + Linsitinib; first compound 0.00128 µM) | relative viability (17-AAG + Linsitinib; first compound 0.004048 µM) | relative viability (17-AAG + Linsitinib; first compound 0.0128 µM) | relative viability (17-AAG + Linsitinib; first compound 0.04048 µM) | relative viability (17-AAG + Linsitinib; first compound 0.128 µM) | relative viability (17-AAG + Luminespib; first compound 0.00128 µM) | relative viability (17-AAG + Luminespib; first compound 0.004048 µM) | relative viability (17-AAG + Luminespib; first compound 0.0128 µM) | relative viability (17-AAG + Luminespib; first compound 0.04048 µM) | relative viability (17-AAG + Luminespib; first compound 0.128 µM) | relative viability (17-AAG + Foretinib; first compound 0.00128 µM) | relative viability (17-AAG + Foretinib; first compound 0.004048 µM) | relative viability (17-AAG + Foretinib; first compound 0.0128 µM) | relative viability (17-AAG + Foretinib; first compound 0.04048 µM) | relative viability (17-AAG + Foretinib; first compound 0.128 µM)
HCC-44 | 1 | 0.929 | 0.897 | 0.481 | 0.207 | 0.643 | 0.709 | 0.686 | 0.662 | 0.119 | 0.758 | 0.663 | 0.228 | 0.217 | 0.172 | – | – | – | – | –
HCC-78 | 0.753 | – | 0.938 | 0.942 | 0.286 | 0.626 | – | 0.608 | 0.62 | 0.294 | – | – | – | – | – | 0.525 | 0.574 | 0.611 | 0.516 | 0.499
HCC-366 | 1.06 | 1.02 | 0.358 | 0.0314 | 0.0217 | 0.52 | 0.659 | 0.0425 | 0.0221 | 0.0229 | – | – | – | – | – | 0.958 | 0.968 | 0.89 | 0.126 | 0.0491
HCC-827 | 0.973 | 1.03 | 1.01 | – | 0.944 | 0.902 | 0.958 | 0.946 | – | 0.855 | 0.579 | 0.706 | 0.652 | – | 0.291 | 1.06 | 0.978 | 1.03 | – | 0.727
HOP-62 | 1.16 | 1.01 | 1.05 | 0.843 | 0.151 | 0.783 | 0.917 | 1.08 | 0.819 | 0.455 | 0.928 | 0.806 | 0.919 | 0.36 | 0.136 | 1.16 | 1.05 | 0.858 | 0.549 | 0.382
IA-LM | 0.901 | 0.784 | 0.757 | 0.237 | 0.0731 | 0.551 | 0.667 | 0.599 | 0.177 | 0.102 | – | – | – | – | – | 1.21 | 1.05 | 1.19 | 0.491 | 0.313
LC-2-ad | 0.525 | 0.565 | 0.393 | 0.234 | 0.111 | 0.861 | 0.883 | 0.857 | 0.362 | 0.136 | 0.949 | 0.83 | 0.305 | 0.302 | 0.258 | 0.891 | 0.898 | 0.515 | 0.343 | 0.261
LCLC-97TM1 | 0.47 | 0.573 | 0.518 | 0.378 | 0.355 | 0.192 | 0.198 | 0.211 | 0.269 | 0.182 | 0.826 | 0.785 | 0.707 | 0.58 | 0.195 | 0.973 | 0.897 | 0.958 | 0.991 | 0.631
LCLC-103H | – | – | – | – | – | 1.15 | 1.12 | 1.13 | 0.965 | 0.992 | 1.04 | 0.891 | 0.98 | 0.999 | 0.798 | 0.874 | 0.818 | 0.736 | 0.932 | 1.01
NCI-H358 | – | – | – | – | – | 0.817 | 0.892 | 0.148 | 0.161 | 0.131 | 0.273 | 0.235 | 0.121 | 0.0893 | 0.0737 | 0.669 | 0.397 | 0.0697 | 0.0813 | 0.0542
NCI-H522 | – | – | – | – | – | – | – | – | – | – | 0.902 | 1.03 | 0.948 | 1.02 | 0.451 | – | – | – | – | –
NCI-H650 | – | – | – | – | – | 0.865 | 0.908 | 0.788 | 0.314 | 0.177 | 0.884 | 0.601 | 0.607 | 0.386 | 0.171 | 1.04 | 1.02 | 1 | 0.934 | 0.249
NCI-H661 | – | – | – | – | – | 0.558 | 0.569 | 0.516 | 0.45 | 0.259 | 0.872 | 0.895 | 0.797 | 0.353 | 0.257 | 0.945 | 0.989 | 0.809 | 0.567 | 0.286
NCI-H1299 | 1.04 | 1.01 | 1.07 | 0.952 | 0.755 | 0.999 | 0.922 | 0.919 | 0.894 | 0.714 | – | – | – | – | – | 1.12 | 1.03 | 1.08 | 1.04 | 0.945
NCI-H1563 | – | – | – | – | – | 1.17 | 0.952 | 0.668 | 0.623 | 0.622 | 0.476 | 0.497 | 0.537 | 0.525 | 0.49 | 1.04 | 0.83 | 0.559 | 0.549 | 0.5
NCI-H1650 | 1.19 | 0.782 | 0.407 | 0.181 | 0.171 | – | – | – | – | – | 0.195 | 0.194 | 0.228 | 0.214 | 0.215 | 0.89 | 0.344 | 0.225 | 0.212 | 0.175
NCI-H1703 | 0.961 | 0.22 | 0.16 | 0.162 | 0.125 | 0.3 | 0.687 | 0.115 | 0.148 | 0.0982 | – | – | – | – | – | 0.325 | 0.331 | 0.215 | 0.229 | 0.191
NCI-H1792 | 0.592 | 0.675 | 0.523 | 0.477 | 0.115 | 0.481 | 0.619 | 0.449 | 0.391 | 0.372 | 0.351 | 0.418 | 0.255 | 0.268 | 0.213 | – | – | – | – | –
NCI-H2170 | 0.649 | 0.578 | 0.548 | 0.251 | 0.167 | – | – | – | – | – | 0.696 | 0.502 | 0.374 | 0.137 | 0.151 | 0.961 | 1.01 | 0.955 | 0.607 | 0.328
NCI-H2342 | – | – | – | – | – | – | – | – | – | – | 0.695 | 0.689 | 0.602 | 0.402 | 0.38 | 0.97 | 1.04 | 0.968 | 0.846 | 0.374
SW 900 | – | – | – | – | – | – | – | – | – | – | 0.183 | 0.172 | 0.19 | 0.153 | 0.153 | 0.868 | 0.735 | 0.39 | 0.119 | 0.0963
